Reference: patent US9663508B2, “Biaryl acyl-sulfonamide compounds as sodium channel inhibitors” (AMGEN INC., priority 2013, dated 2017)
Read-outs that look alike come from different tables or passages of the source.

Legend:
[1] = biological target: human Nav1.7 (Homo sapiens (Human), UniProt Q15858); test: Nav 1.7 in vitro PatchXpress (PX) assay; type: cell-based
[2] = biological target: human Nav 1.5 (Homo sapiens (Human), UniProt Q14524); test: Nav 1.5 IonWorks Quattro (IWQ) in vitro assay; type: cell-based
human Nav 1.5, sequence (Q14524 whole entry): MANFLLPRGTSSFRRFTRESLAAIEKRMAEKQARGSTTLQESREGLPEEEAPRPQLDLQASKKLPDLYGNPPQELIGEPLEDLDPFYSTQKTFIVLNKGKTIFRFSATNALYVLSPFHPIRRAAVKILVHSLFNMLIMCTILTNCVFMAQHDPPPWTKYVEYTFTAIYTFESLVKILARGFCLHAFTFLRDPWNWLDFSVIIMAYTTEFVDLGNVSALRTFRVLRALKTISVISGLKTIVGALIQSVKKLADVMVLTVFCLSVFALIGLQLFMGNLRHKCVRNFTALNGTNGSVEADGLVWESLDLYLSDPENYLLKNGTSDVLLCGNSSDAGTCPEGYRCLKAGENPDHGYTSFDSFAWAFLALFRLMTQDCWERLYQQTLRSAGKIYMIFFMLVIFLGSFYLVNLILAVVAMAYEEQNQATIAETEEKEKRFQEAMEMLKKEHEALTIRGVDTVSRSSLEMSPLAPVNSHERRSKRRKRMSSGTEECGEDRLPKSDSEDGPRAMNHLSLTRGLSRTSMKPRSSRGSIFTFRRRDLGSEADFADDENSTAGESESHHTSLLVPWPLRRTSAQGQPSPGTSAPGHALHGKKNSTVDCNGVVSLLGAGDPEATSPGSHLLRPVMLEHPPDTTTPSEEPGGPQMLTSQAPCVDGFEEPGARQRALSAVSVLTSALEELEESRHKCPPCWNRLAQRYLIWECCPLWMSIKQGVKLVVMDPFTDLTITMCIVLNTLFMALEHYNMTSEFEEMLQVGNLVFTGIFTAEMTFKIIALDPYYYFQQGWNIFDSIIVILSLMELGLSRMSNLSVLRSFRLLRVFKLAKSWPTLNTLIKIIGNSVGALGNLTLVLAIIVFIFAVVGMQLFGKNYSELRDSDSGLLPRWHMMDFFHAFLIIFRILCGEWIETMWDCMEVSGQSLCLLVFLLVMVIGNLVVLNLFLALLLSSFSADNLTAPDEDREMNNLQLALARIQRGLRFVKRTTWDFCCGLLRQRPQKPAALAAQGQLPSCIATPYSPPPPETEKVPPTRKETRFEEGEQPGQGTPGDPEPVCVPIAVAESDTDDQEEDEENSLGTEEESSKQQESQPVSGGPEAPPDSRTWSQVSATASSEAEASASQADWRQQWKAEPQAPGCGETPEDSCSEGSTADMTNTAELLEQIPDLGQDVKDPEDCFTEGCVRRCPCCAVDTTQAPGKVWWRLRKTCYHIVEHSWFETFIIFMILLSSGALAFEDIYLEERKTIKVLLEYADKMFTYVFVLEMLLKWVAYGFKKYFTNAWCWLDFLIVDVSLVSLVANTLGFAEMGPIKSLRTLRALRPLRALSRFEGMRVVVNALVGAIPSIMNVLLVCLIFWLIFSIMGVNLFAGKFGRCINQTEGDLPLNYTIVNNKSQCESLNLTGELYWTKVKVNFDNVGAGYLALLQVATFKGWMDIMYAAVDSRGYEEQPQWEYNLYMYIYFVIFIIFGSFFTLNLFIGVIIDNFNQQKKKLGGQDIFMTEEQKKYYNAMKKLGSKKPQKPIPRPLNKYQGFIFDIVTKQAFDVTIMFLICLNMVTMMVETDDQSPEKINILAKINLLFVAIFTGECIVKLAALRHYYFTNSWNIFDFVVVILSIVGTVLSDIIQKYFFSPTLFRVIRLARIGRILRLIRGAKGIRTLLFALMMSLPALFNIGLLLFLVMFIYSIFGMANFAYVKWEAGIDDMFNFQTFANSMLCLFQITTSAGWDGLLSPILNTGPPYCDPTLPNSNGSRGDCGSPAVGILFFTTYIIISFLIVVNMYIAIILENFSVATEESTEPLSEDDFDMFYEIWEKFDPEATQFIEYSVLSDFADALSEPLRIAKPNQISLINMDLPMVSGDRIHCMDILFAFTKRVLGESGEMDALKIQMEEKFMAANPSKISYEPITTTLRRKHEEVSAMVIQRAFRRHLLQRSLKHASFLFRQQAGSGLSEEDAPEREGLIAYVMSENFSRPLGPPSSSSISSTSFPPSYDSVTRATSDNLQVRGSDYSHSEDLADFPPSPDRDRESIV
Experimental: Nav 1.7 or Nav 1.5 Ion Works Quattro (IWQ) In Vitro Assay
HEK 293 Cells stably transfected with either human Nay 1.7 or human Nay 1.5 were recorded in population patch-clamp mode with the IonWorks® Quattro automated electrophysiology system in accordance with the manufacturer's specifications (Molecular Devices, LLC, Sunnyvale, Calif.). Sodium channel currents were measured in response to a train of depolarizations that induced successively greater inactivation.
Cells were held at −110 mV for three seconds (Nav 1.7) or half a second (Nav 1.5) from a holding voltage of −15 mV, then put through a series of 26 pulses of 150 msec duration to −20 mV at a frequency of 5 Hz. Cells were then left unclamped for a period of 3 to 8 minutes while a single concentration of test compound was added. Cells were then reclamped and put through the same voltage protocol. Current at the end of the 26th pulse to −20 mV was subtracted from the peak current evoked by the 26th pulse to −20 mV to correct for leak current. Percent block was calculated for each concentration in duplicate, and IC50 curves were fitted to percent block as a function of concentration.

[3] = in-vitro Nav 1.5 IWQ data, read-out: NAV 1.5 IWQ (IC50)

human Nav1.7, sequence (Q15858 whole entry): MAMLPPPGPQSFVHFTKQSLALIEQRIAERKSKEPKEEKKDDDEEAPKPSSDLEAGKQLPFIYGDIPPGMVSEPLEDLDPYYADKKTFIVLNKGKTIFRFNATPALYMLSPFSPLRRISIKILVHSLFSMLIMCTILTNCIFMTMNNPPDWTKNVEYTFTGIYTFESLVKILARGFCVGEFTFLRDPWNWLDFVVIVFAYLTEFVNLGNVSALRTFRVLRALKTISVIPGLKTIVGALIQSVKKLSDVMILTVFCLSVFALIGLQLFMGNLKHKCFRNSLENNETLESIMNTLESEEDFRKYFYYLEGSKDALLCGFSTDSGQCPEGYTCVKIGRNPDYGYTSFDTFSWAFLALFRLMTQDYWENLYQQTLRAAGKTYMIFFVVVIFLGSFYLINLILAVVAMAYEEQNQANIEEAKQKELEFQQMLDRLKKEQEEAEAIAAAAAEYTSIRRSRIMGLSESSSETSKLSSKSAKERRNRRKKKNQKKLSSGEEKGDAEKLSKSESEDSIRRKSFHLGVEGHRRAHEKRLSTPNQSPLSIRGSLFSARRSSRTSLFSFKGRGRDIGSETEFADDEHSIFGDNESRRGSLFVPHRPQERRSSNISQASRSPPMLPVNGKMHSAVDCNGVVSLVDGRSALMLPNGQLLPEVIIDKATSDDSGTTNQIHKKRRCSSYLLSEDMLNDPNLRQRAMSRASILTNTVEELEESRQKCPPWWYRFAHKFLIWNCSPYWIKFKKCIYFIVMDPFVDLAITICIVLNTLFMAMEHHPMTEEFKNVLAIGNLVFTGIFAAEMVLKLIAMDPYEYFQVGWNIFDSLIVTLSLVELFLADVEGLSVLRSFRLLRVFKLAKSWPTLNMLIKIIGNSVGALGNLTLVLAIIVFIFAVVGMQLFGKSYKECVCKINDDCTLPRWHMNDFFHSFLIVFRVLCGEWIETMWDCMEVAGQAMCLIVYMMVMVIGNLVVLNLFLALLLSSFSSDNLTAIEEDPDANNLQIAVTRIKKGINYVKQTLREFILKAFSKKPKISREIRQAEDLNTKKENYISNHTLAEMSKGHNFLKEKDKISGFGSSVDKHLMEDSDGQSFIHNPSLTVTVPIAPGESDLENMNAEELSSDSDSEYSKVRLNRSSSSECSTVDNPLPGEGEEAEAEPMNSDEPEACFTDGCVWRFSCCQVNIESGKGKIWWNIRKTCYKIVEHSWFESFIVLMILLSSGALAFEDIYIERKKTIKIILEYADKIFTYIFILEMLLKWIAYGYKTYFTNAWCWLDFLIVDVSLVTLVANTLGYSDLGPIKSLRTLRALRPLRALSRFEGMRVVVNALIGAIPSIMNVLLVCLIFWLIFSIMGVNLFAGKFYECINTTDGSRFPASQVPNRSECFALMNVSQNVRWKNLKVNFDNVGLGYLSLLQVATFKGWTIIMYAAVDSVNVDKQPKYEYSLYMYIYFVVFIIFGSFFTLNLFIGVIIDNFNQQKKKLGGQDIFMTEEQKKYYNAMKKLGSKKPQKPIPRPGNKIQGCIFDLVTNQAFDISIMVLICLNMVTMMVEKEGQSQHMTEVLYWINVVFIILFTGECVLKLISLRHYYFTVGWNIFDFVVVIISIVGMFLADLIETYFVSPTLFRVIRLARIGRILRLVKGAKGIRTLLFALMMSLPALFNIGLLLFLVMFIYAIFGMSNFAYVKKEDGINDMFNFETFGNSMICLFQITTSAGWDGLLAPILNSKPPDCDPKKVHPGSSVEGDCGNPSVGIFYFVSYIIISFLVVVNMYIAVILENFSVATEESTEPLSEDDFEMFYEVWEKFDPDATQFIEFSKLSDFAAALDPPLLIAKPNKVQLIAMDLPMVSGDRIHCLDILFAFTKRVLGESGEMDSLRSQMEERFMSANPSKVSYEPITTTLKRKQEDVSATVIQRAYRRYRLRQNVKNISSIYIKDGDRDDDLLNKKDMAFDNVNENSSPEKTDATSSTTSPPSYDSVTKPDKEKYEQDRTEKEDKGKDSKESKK

Row | IC50 [1] | IC50 ([1]; in-vitro Nav 1.7 PX data) | Structure (SMILES) | IC50 ([2]; read-out: NAV 1.5 IWQ IC50) | IC50 [2, 3]
1 | 52.4 nM |  | COc1cc(C(=O)NS(C)(=O)=O)c(F)cc1-c1cnc(Oc2cc(Cl)cc(Cl)c2)c(Cl)c1 [Example 695, 4-(5-chloro-6-(3,5-dichlorophenoxy)-3-pyridinyl)-2-fluoro-5-methoxy-N-(methylsulfonyl)benzamide] | > 3000 nM | 
2 | 55.1 nM |  | COc1cc(C(=O)NS(C)(=O)=O)c(F)cc1-c1cnc(Oc2cc(Cl)ccc2C)c(Cl)c1 [Example 699, 4-(5-chloro-6-(5-chloro-2-methylphenoxy)-3-pyridinyl)-2-fluoro-5-methoxy-N-(methylsulfonyl)benzamide] | > 3000 nM | 
3 | 45.5 nM |  | Cc1cc(C(=O)NS(C)(=O)=O)c(F)cc1-c1cnc(Oc2cc(F)ccc2F)c(Cl)c1 [Example 605, 4-(5-chloro-6-(2,5-difluorophenoxy)-3-pyridinyl)-2-fluoro-5-methyl-N-(methylsulfonyl)benzamide] | > 3000 nM | 
4 | 78.2 nM |  | COc1cc(C(=O)NS(C)(=O)=O)c(F)cc1-c1cnc(O[C@H]2C[C@H]3CC[C@@H]2C3)c(Cl)c1 [Example 703, 4-(6-((1R,2S,4S)-bicyclo[2.2.1]hept-2-yloxy)-5-chloro-3-pyridinyl)-2-fluoro-5-methoxy-N-(methylsulfonyl)benzamide] | > 3000 nM | 
5 | 83.4 nM |  | Cc1cc(C(=O)NS(C)(=O)=O)c(F)cc1-c1cnc(O[C@@H](C)c2cc(Cl)ccc2Cl)c(Cl)c1 [Example 674, 4-(5-chloro-6-((1S)-1-(2,5-dichlorophenyl)ethoxy)-3-pyridinyl)-2-fluoro-5-methyl-N-(methylsulfonyl)benzamide] | 4860 nM | 
6 | 71.7 nM |  | Cc1cc(C(=O)NS(C)(=O)=O)c(F)cc1-c1cnc(Oc2cc(F)c(Br)cc2Cl)c(Cl)c1 [Example 606, 4-(6-(4-bromo-2-chloro-5-fluorophenoxy)-5-chloro-3-pyridinyl)-2-fluoro-5-methyl-N-(methylsulfonyl)benzamide] | > 3000 nM | 
7 | 95 nM |  | COc1cc(C(=O)NS(C)(=O)=O)ccc1-c1cnc(OCc2ccccc2Cl)c(Cl)c1 [Example 577, 4-(5-chloro-6-((2-chlorobenzyl)oxy)-3-pyridinyl)-3-methoxy-N-(methylsulfonyl)benzamide] | > 3000 nM | 
8 | 68.1 nM |  | Cc1ccc(Cl)cc1Oc1ncc(-c2cc(F)c(C(=O)NS(C)(=O)=O)cc2Cl)cc1Cl [Example 590, 5-chloro-4-(5-chloro-6-(5-chloro-2-methylphenoxy)-3-pyridinyl)-2-fluoro-N-(methylsulfonyl)benzamide] | > 3000 nM | 
9 | 69.8 nM |  | CS(=O)(=O)NC(=O)c1cc(Cl)c(-c2cnc(Oc3cc(F)ccc3F)c(Cl)c2)cc1F [Example 597, 5-chloro-4-(5-chloro-6-(2,5-difluorophenoxy)-3-pyridinyl)-2-fluoro-N-(methylsulfonyl)benzamide] | 5390 nM | 
10 | 77.8 nM |  | Cc1cc(C(=O)NS(C)(=O)=O)c(F)cc1-c1cnc(Oc2cc(F)cc(F)c2)c(Cl)c1 [Example 630, 4-(5-chloro-6-(3,5-difluorophenoxy)-3-pyridinyl)-2-fluoro-5-methyl-N-(methylsulfonyl)benzamide] | > 3000 nM | 
11 | 28.4 nM |  | COc1cc(C(=O)NS(C)(=O)=O)ccc1-c1cnc(Oc2c(C)cc(Cl)cc2Cl)c(C#N)c1 [Example 689, 4-(5-cyano-6-(2,4-dichloro-6-methylphenoxy)-3-pyridinyl)-3-methoxy-N-(methylsulfonyl)benzamide] | 1000 nM | 
12 | 57.8 nM |  | Cc1cc(C(=O)NS(C)(=O)=O)c(F)cc1-c1cnc(Oc2cc(F)cc(F)c2F)c(Cl)c1 [Example 629, 4-(5-chloro-6-(2,3,5-trifluorophenoxy)-3-pyridinyl)-2-fluoro-5-methyl-N-(methylsulfonyl)benzamide] | > 3000 nM | 
13 | 70.5 nM |  | Cc1cc(C(=O)NS(C)(=O)=O)c(F)cc1-c1cnc(Oc2cc(C(F)(F)F)ccc2Cl)c(Cl)c1 [Example 642, 4-(5-chloro-6-(2-chloro-5-(trifluoromethyl)phenoxy)-3-pyridinyl)-2-fluoro-5-methyl-N-(methylsulfonyl)benzamide] | > 3000 nM | 
14 | 90.4 nM |  | Cc1cc(C(=O)NS(C)(=O)=O)c(F)cc1-c1cnc(OCc2cccc3ncccc23)c(Cl)c1 [Example 654, 4-(5-chloro-6-(5-quinolinylmethoxy)-3-pyridinyl)-2-fluoro-5-methyl-N-(methylsulfonyl)benzamide] | > 3000 nM | 
15 |  | 80.7 nM | CNS(=O)(=O)NC(=O)c1ccc(-c2cnc(Oc3cc(Cl)cc(Cl)c3)c(Cl)c2)c(OC)c1 [Example 772, 4-(5-Chloro-6-(3,5-Dichlorophenoxy)Pyridin-3-yl)-3-Methoxy-N—(N-Methylsulfamoyl)Benzamide] |  | > 3000 nM
16 | 76.1 nM |  | Cc1cc(Cl)ccc1Oc1ncc(-c2cc(F)c(C(=O)NS(C)(=O)=O)cc2C)cc1Cl [Example 620, 4-(5-chloro-6-(4-chloro-2-methylphenoxy)-3-pyridinyl)-2-fluoro-5-methyl-N-(methylsulfonyl)benzamide] | > 3000 nM | 
17 | 82.7 nM |  | Cc1ccc(C(C)(C)C)c(Oc2ncc(-c3cc(F)c(C(=O)NS(C)(=O)=O)cc3C)cc2Cl)c1 [Example 624, 4-(6-(2-tert-butyl-5-methylphenoxy)-5-chloro-3-pyridinyl)-2-fluoro-5-methyl-N-(methylsulfonyl)benzamide] | > 3000 nM | 
18 | 68.2 nM |  | Cc1cc(C(=O)NS(C)(=O)=O)c(F)cc1-c1cnc(Oc2cccc(Br)c2)c(Cl)c1 [Example 607, 4-(6-(3-bromophenoxy)-5-chloro-3-pyridinyl)-2-fluoro-5-methyl-N-(methylsulfonyl)benzamide] | > 3000 nM | 
19 |  | 80.1 nM | COc1cc(C(=O)NS(C)(=O)=O)ccc1-c1cnc(COc2ccc(Cl)c(Cl)c2)c(Cl)c1 [Example 774, 4-(5-Chloro-6-((3,4-Dichlorophenoxy)-Methyl)Pyridin-3-yl)-3-Methoxy-N-(Methylsulfonyl)Benzamide] |  | > 3000 nM
20 | 93.7 nM |  | Cc1cc(C(=O)NS(C)(=O)=O)c(F)cc1-c1cnc(Oc2cccc(Cl)c2F)c(Cl)c1 [Example 619, 4-(5-chloro-6-(3-chloro-2-fluorophenoxy)-3-pyridinyl)-2-fluoro-5-methyl-N-(methylsulfonyl)benzamide] | > 3000 nM | 
21 | 62.8 nM |  | Cc1cc(C(=O)NS(C)(=O)=O)c(F)cc1-c1cnc(Oc2cc(F)cc(F)c2Cl)c(Cl)c1 [Example 631, 4-(5-chloro-6-(2-chloro-3,5-difluorophenoxy)-3-pyridinyl)-2-fluoro-5-methyl-N-(methylsulfonyl)benzamide] | > 3000 nM | 
22 | 56 nM |  | Cc1cc(C(=O)NS(C)(=O)=O)c(F)cc1-c1cnc(Oc2c(C)cc(Cl)cc2Cl)c(Cl)c1 [Example 628, 4-(5-chloro-6-(2,4-dichloro-6-methylphenoxy)-3-pyridinyl)-2-fluoro-5-methyl-N-(methylsulfonyl)benzamide] | 2190 nM | 
23 | 97 nM |  | Cc1cc(C(=O)NS(C)(=O)=O)c(F)cc1-c1cnc(Oc2cc(F)c(Cl)c(F)c2)c(Cl)c1 [Example 668, 4-(5-chloro-6-(4-chloro-3,5-difluorophenoxy)-3-pyridinyl)-2-fluoro-5-methyl-N-(methylsulfonyl)benzamide] | > 10000 nM | 
24 | 59.8 nM |  | Cc1cc(Cl)cc(Cl)c1Oc1ncc(-c2cc(F)c(C(=O)NS(C)(=O)=O)cc2F)cc1Cl [Example 567, 4-(5-chloro-6-(2,4-dichloro-6-methylphenoxy)-3-pyridinyl)-2,5-difluoro-N-(methylsulfonyl)benzamide] | > 4900 nM | 
25 | 81.4 nM |  | CS(=O)(=O)NC(=O)c1cc(Cl)c(-c2cnc(Oc3cc(F)ccc3Cl)c(Cl)c2)cc1F [Example 595, 5-chloro-4-(5-chloro-6-(2-chloro-5-fluorophenoxy)-3-pyridinyl)-2-fluoro-N-(methylsulfonyl)benzamide] | > 3000 nM | 
26 |  |  | Cc1cc(C(=O)NS(C)(=O)=O)c(F)cc1-c1cnc(O[C@H](C)c2cc(Cl)ccc2Cl)c(Cl)c1 [Example 673, 4-(5-chloro-6-((1R)-1-(2,5-dichlorophenyl)ethoxy)-3-pyridinyl)-2-fluoro-5-methyl-N-(methylsulfonyl)benzamide] | > 10000 nM | 

Row | Structure (SMILES) | IC50 [1] | IC50 ([1]; in-vitro Nav 1.7 PX data) | IC50 ([2]; read-out: NAV 1.5 IWQ IC50) | IC50 [2, 3]
27 | Cc1cc(C(=O)NS(C)(=O)=O)c(F)cc1-c1cnc(O[C@H](C)c2ccc(F)cc2Cl)c(Cl)c1 [Example 652, 4-(5-chloro-6-((1R)-1-(2-chloro-4-fluorophenyl)ethoxy)-3-pyridinyl)-2-fluoro-5-methyl-N-(methylsulfonyl)benzamide, 4-(5-chloro-6-((1S)-1-(2-chloro-4-fluorophenyl)ethoxy)-3-pyridinyl)-2-fluoro-5-methyl-N-(methylsulfonyl)benzamide] | 66.4 nM |  | > 3000 nM | 
28 | Cc1cc(C(=O)NS(C)(=O)=O)c(F)cc1-c1cnc(O[C@H](C)C2CCC2)c(Cl)c1 [Example 641, 4-(5-chloro-6-((1R)-1-cyclobutylethoxy)-3-pyridinyl)-2-fluoro-5-methyl-N-(methylsulfonyl)benzamide, 4-(5-chloro-6-((1S)-1-cyclobutylethoxy)-3-pyridinyl)-2-fluoro-5-methyl-N-(methylsulfonyl)benzamide] | 111 nM |  | 9320 nM | 
29 | Cc1cc(C(=O)NS(C)(=O)=O)c(F)cc1-c1cnc(O[C@H](C)c2nc3cc(Cl)ccc3s2)c(Cl)c1 [Example 653, 4-(5-chloro-6-((1R)-1-(5-chloro-1,3-benzothiazol-2-yl)ethoxy)-3-pyridinyl)-2-fluoro-5-methyl-N-(methylsulfonyl)benzamide, 4-(5-chloro-6-((1S)-1-(5-chloro-1,3-benzothiazol-2-yl)ethoxy)-3-pyridinyl)-2-fluoro-5-methyl-N-(methylsulfonyl)benzamide] | 83.6 nM |  | > 3000 nM | 
30 | CC[C@@H](Oc1ncc(-c2cc(F)c(C(=O)NS(C)(=O)=O)cc2C)cc1Cl)c1ccc(F)cc1 [Example 650, 4-(5-chloro-6-(((1R)-1-(4-fluorophenyl)propyl)oxy)-3-pyridinyl)-2-fluoro-5-methyl-N-(methylsulfonyl)benzamide] | 78.7 nM |  | > 3000 nM | 
